Assay results reported in patent US11326207B2, “Sequencing using non-natural nucleotides” (Ultima Genomics, Inc., priority 2017, dated 2022).
Where two headings read alike, the source gives them in different places.

What was measured:
DNA polymerase = settings: for peak height (red fluorescence on the gel): dUTP* only (Fr = 1.0) or dUTP*/named dUTP^0
Experimental: A gel assay was also performed to examine context-dependent incorporation. […] The primers had different lengths poly-T tails to enable separation on a polyacrylamide gel. […] Excess nucleotides and nucleotide analogs were washed away and the sample was loaded onto a gel.
The red fluorescence on the gel was analyzed with ImageJ. The peak heights for the extension reactions for each primer with Fr=1.0 was measured. […] The ratios of the peak heights for each pair were calculated (“norm.”). […] The metric in this experiment was context, as defined as: C=(Maximum signal−minimum signal)/(average signal).

hairpin oligo = experiment: Kinetic assay using hairpin oligos (Example 7); type: biochemical
Experimental: A kinetic assay using hairpin oligos was also performed to determine the rate of incorporate of an unnatural nucleotide and a natural nucleotide following the unnatural nucleotide. […] Incorporation of a T or U analog unquenched a fluorescein in the hairpin oligo. Following incorporation of the T or U analog, a mixture of C and A was added, which further unquenched the dye.

Bst DNA polymerase = biological target: T1, Bst DNA polymerase (Geobacillus stearothermophilus, UniProt P52026); experiment: Stepwise sequencing with TTP and E-dUTP, context metric (Example 8); type: biochemical; settings: 0.05 fraction of dUTP*
T1 sequence (P52026 1-876): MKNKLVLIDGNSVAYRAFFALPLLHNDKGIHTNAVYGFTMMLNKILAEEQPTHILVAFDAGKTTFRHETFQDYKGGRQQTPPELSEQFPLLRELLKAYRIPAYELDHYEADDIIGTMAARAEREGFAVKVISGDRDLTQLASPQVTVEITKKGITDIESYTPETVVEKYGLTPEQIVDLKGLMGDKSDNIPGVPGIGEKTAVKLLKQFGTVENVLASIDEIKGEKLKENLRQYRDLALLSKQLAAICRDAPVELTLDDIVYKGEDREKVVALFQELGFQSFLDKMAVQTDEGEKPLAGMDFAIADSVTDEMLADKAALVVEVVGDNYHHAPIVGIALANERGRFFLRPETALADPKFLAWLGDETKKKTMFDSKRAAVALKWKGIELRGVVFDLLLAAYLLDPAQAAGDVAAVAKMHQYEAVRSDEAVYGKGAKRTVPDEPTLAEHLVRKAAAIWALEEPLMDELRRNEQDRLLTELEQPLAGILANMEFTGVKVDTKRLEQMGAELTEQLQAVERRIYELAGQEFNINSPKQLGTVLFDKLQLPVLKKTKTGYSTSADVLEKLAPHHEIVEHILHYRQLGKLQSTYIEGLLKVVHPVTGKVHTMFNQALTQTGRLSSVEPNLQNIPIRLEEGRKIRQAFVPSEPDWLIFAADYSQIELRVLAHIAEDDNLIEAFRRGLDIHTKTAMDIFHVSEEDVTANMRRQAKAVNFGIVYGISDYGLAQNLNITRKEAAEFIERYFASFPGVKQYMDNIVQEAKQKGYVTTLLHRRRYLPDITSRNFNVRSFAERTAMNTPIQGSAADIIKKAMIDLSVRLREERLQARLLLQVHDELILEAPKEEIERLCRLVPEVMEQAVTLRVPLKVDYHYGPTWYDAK
Source text: A microscope slide surface was modified with polyaminosilane to allow the attachment of 1 micron beads each containing one of three different oligonucleotide templates. To each template was bound an oligonucleotide primer and Bst DNA polymerase. Solutions of mixtures of labeled and unlabeled nucleotide, of one type at a time, were exposed to the surface, followed by a wash solution. The fluorescence of labeled beads was detected and quantitated. The fluorescence label was cleaved by treatment with tris(hydroxypropyl)phosphine (THP) after each step.
Context was measured for each experiment. Context is given by the context metric, C, which is defined as the (maximum-minimum signal)/average signal.

Bst 2.0 DNA polymerase = experiment: Homopolymer assays of nucleotide analogs (Example 10); type: biochemical; settings: Natural Nucleotide T (TTP = 1); template oligo 332, primer 221L
Experimental: A homopolymer assay was performed to investigate the effectiveness of E-dCTP and P-dUTP as nucleotide analogs of dCTP. 50 μl solutions containing a template nucleic acid molecule and primer and Bst 2.0 DNA polymerase are placed in a microplate reader and the fluorescence of the solution is measured in kinetic mode. A fluorescein attached to an oligonucleotide (indicated with a * in FIG. 7) was quenched in the substrate due to the proximity of complementary G bases. Addition of dCTP and/or dCTP analogs causes extension of the 3′ end of the primer, formation of double-stranded DNA, and unquenching of the fluorescein. The fluorescence increases with the addition of multiple nucleotides.
Additional homopolymer assays were performed according to the procedure outlined in Example 8 using different nucleotides and nucleotide analogs.
To test for dUTP or TTP incorporation, oligo 332 was used as a template and oligo 221L was used as a primer. To test for dCTP incorporation, oligo 333 was used as a template and oligo 221L was used as a primer. To test for dGTP incorporation, oligo 334 was used as a template and oligo 221L was used as a primer. To test for dATP incorporation, hairpin oligo 221 was used as both a primer and template.

What does the source list for Cc1cn([C@H]2C[C@H](O)[C@@H](COP(=O)(O)OP(=O)(O)OP(=O)(O)O)O2)c(=O)[nH]c1=O [TTP, thymidine triphosphate, reference compound]?
Norm. (ratio of peak height dUTP*/dUTP^0 to Fr=1.0) (DNA polymerase; Peak 1): 1.1; peak height (red fluorescence on the gel) (DNA polymerase; Peak 1 (primer)): 48; Norm. (ratio of peak height dUTP*/dUTP^0 to Fr=1.0) (DNA polymerase; Peak 2): 1.4; peak height (red fluorescence on the gel) (DNA polymerase; Peak 2 (primer)): 56; Norm. (ratio of peak height dUTP*/dUTP^0 to Fr=1.0) (DNA polymerase; Peak 3): 1.0; peak height (red fluorescence on the gel) (DNA polymerase; Peak 3 (primer)): 25; Norm. (ratio of peak height dUTP*/dUTP^0 to Fr=1.0) (DNA polymerase; Peak 4): 1.2; peak height (red fluorescence on the gel) (DNA polymerase; Peak 4 (primer)): 38; Norm. (ratio of peak height dUTP*/dUTP^0 to Fr=1.0) (DNA polymerase; Peak 5): 1.7; peak height (red fluorescence on the gel) (DNA polymerase; Peak 5 (primer)): 38; context C=(Maximum signal−minimum signal)/(average signal) (DNA polymerase; five primers, gel assay with dUTP*): 0.54; incorporation of dCTP and dATP after the dUTP analog (hairpin oligo; mixture of C and A added after T or U analog): rapid; initial incorporation of dUTP analog (hairpin oligo; unquenching of fluorescein in hairpin oligo): rapid; C (context metric) (Bst DNA polymerase; Oligonucleotide template 1): 0.86; C (context metric) (Bst DNA polymerase; Oligonucleotide template 2): 0.73; C (context metric) (Bst DNA polymerase; Oligonucleotide template 3): 0.71; Relative Rate in Homopolymer Assay (Bst 2.0 DNA polymerase): 1
